From patent US7291603B2, “Nucleoside compounds and their use for treating cancer and diseases associated with somatic mutations” (PTC Therapeutics, Inc., priority 2002, dated 2007) come the findings set out here.

In this experiment the test system is luciferase reporter construct containing a UGA premature termination codon stably transfected in 293T Human Embryonic Kidney cells. Put plainly: cell-based luciferase reporter assay (nonsense suppression). Also noted: key: Compounds which were found to have either or both very high potency and very high efficacy of protein synthesis are classified as “***”; Compounds which were found to have significant potency and/or efficacy of protein synthesis were classified as “**”; compounds which were found to have potency and/or efficacy of protein synthesis were classified as “*”. As to conditions: UGA premature termination codon luciferase reporter in 293T cells; gentamicin internal standard; qualitative potency/efficacy of protein synthesis. As for the experimental part: Activity measurements in Table 1 were performed in a cell-based luciferase reporter assay (as described in Section 4.2) comprising a luciferase reporter construct containing a UGA premature termination codon that was stably transfected in 293T Human Embryonic Kidney cells. Gentamicin, a small molecule known to allow readthrough of premature termination codons, was used as an internal standard. Activity measurements are based on the qualitative ratio between the minimum concentration of compound required to produce a given protein in a cell versus the amount of protein produced by the cell at that concentration.
The test compounds identified in the nonsense suppression assay (for convenience referred to herein as a compound of the invention) can be tested for biological activity using host cells containing or engineered to contain the target RNA element coupled to a functional readout system. For example, the lead compound can be tested in a host cell engineered to contain the RNA with the premature translation termination codon controlling the expression of a reporter gene. In this example, the lead compounds are assayed in the presence or absence of the RNA with the premature translation termination codon. Compounds that modulate premature translation termination and/or nonsense-mediated mRNA decay in vivo will result in increased expression of the full-length gene, i.e., past the premature termination codon. Alternatively, a phenotypic or physiological readout can be used to assess activity of the target RNA with the premature translation termination codon in the presence and absence of the lead compound. Both the in vitro and in vivo nonsense suppression assays used herein and as described in International Patent Publication WO 01/44516, which is incorporated by reference herein in its entirety, can be used to identify lead compounds and can also be used to determine an EC50 for the lead compounds.
A stable cell line harboring the UGA nonsense-containing luciferase gene is treated with a test compound. Cells are grown in standard medium supplemented with 1% penicillin-streptomycin (P/S) and 10% fetal bovine serum (FBS) to 70% confluency and split 1:1 the day before treatment. The next day, cells are trypsinized and 40,000 cells are added to each well of a 96-well tissue culture dish. Serial dilutions of each compound are prepared to generate a six-point dose response curve spanning 2 logs (30 μM to 0.3 μM). The final concentration of the DMSO solvent remains constant at 1% in each well. Cells treated with 1% DMSO serve as the background standard, and cells treated with gentamicin serve as a positive control.
In general terms: A reporter such as luciferase makes a cellular process visible.
`O=[N+]([O-])c1c(NCCO)ncnc1N[C@@H]1O[C@H](CO)[C@@H](O)[C@H]1O` [Compound 13, 6-(2-hydroxy-ethylamino)-5-nitro-4-(β-D-ribo-furanosylamino)pyrimidine] came in with an Activity of 0. The same measure for `CSc1ncnc(N[C@@H]2O[C@H](CO)[C@@H](O)[C@H]2O)c1[N+](=O)[O-]` [Compound 10, 6-(thiomethyl)-5-nitro-4-(β-D-ribo-furanosylamino)pyrimidine]: “*”; for `CCNc1ncnc(N[C@@H]2O[C@H](CO)[C@@H](O)[C@H]2O)c1[N+](=O)[O-]` [Compound 14, 6-(ethylamino)-5-nitro-4-(β-D-ribo-furanosylamino)pyrimidine]: 0.

Consider `CC1(C)O[C@@H]2[C@H](O1)[C@@H](CO)O[C@H]2Nc1ncnc(N)c1[N+](=O)[O-]` [Compound 12, 6-amino-5-nitro-4-(2,3-O-isopropylidene-β-D-ribofuranosylamino)pyrimidine], for which the Activity came out at 0. The same measure for `Nc1ncnc(N[C@@H]2O[C@H](CO)[C@@H](O)[C@H]2O)c1N` [Compound 3, 5,6-Diamino-4-(β-D-ribofuranosyl-amino)pyrimidine]: “*”. Turning to `Nc1ncnc(N[C@H]2C[C@@H](CO)[C@H](O)[C@@H]2O)c1[N+](=O)[O-]` [Compound 7, (1S,2R,3S,5S)-3-(6-Amino-5-nitro-pyrimidin-4-ylamino)-5-hydroxymethyl-cyclopentane-1,2-diol], the Activity was 0. The same measure for `Nc1ncnc(N[C@@H]2O[C@H](CF)[C@@H](O)[C@H]2O)c1[N+](=O)[O-]` [Compound 20, 6-amino-5-nitro-4-(5-deoxy-5-fluoro-β-D-ribofuranosylamino)-pyrimidine]: “*”; for `Cc1cc(N[C@@H]2O[C@H](CO)[C@@H](O)[C@H]2O)ncc1[N+](=O)[O-]` [Compound 11, 5-nitro-4-methyl-2-(β-D-ribofuranosyl-amino)pyridine]: “*”; for `COC(=O)c1c(Cl)ncnc1N[C@H]1O[C@H](CO)[C@@H](O)[C@H]1O` [Compound 28, Methyl 6-chloro-4-(α-D-ribofuranosylamino)pyrimidine-5-carboxylate]: 0.

Molecule `CN(C)c1ncnc(N[C@@H]2O[C@H](CO)[C@@H](O)[C@H]2O)c1[N+](=O)[O-]` [Compound 9, 6-(dimethylamino)-5-nitro-4-(β-D-ribo-furanosylamino)pyrimidine] displayed an Activity of 0. Regarding `COC(=O)c1c(N)ncnc1N[C@H]1O[C@H](CO)[C@@H](O)[C@H]1O` [Compound 27, Methyl 6-amino-4-(α-D-ribofuranosylamino)pyrimidine-5-carboxylate], the Activity result is on record as “*”. `Nc1ncnc(N[C@@H]2C[C@H](CO)[C@@H](O)[C@H]2O)c1[N+](=O)[O-]` [Compound 6, (1R,2S,3R,5R)-3-(6-Amino-5-nitro-pyrimidin-4-ylamino)-5-hydroxymethyl-cyclopentane-1,2-diol] came in with an Activity of 0. The same measure for `CC(=O)OC[C@H]1O[C@@H](Nc2ncnc(N)c2[N+](=O)[O-])[C@H](O)[C@@H]1O` [Compound 23, 6-Amino-5-nitro-4-[(5-O-acetyl-β-D-ribofuranosyl)amino]pyrimidine]: “***”; for `Nc1ncnc(N[C@@H]2O[C@H](COC(=O)c3ccccc3)C(OC(=O)c3ccccc3)C2OC(=O)c2ccccc2)c1[N+](=O)[O-]` (stereo in doubt) [Compound 24, 6-Amino-5-nitro-4-[(2,3,5-tri-O-benzoyl-β-D-ribofuranosyl)amino]pyrimidine]: “**”; for `CNc1ncnc(N[C@@H]2O[C@H](CO)[C@@H](O)[C@H]2O)c1[N+](=O)[O-]` [Compound 2, 6-(N-methylamino)-5-nitro-4-(β-D-ribo-furanosylamino)pyrimidine]: “**”. For the molecule `COC(=O)c1c(N)ncnc1N[C@@H]1O[C@H](CO)[C@@H](O)[C@H]1O` [Compound 25, Methyl 6-amino-4-(β-D-ribofuranosylamino)pyrimidine-5-carboxylate], the Activity result is given as “*”. To `N#Cc1cccnc1N[C@@H]1O[C@H](CO)[C@@H](O)[C@H]1O` [Compound 16, 3-cyano-2-(β-D-ribofuranosyl-amino)pyridine] belongs “*”; to `[N-]=[N+]=NC[C@H]1O[C@@H](Nc2ncnc(N)c2[N+](=O)[O-])[C@H](O)[C@@H]1O` [Compound 21, 6-amino-5-nitro-4-(5-deoxy-5-azido-β-D-ribofuranosylamino)-pyrimidine], “*”. The same measure for `O=[N+]([O-])c1c(O)ncnc1N[C@@H]1O[C@H](CO)[C@@H](O)[C@H]1O` [Compound 17, 6-hydroxy-5-nitro-4-(β-D-ribofuranosylamino)pyrimidine]: “*”; for `O=[N+]([O-])c1cccnc1N[C@@H]1O[C@H](CO)[C@@H](O)[C@H]1O` [Compound 4, 3-Nitro-2-(β-D-ribofuranosyl-amino)pyridine]: “***”. For the molecule `COc1ccc(CNc2ncnc(N[C@@H]3O[C@H](CO)[C@@H](O)[C@H]3O)c2C#N)cc1` [Compound 15, 6-(4-methoxy-benzylamino)-5-cyano-4-(β-D-ribo-furanosylamino)pyrimidine], the Activity is 0. The same measure for `Nc1ncnc(N[C@@H]2O[C@H](CO)[C@H](O)[C@H]2O)c1[N+](=O)[O-]` [Compound 18, 6-amino-5-nitro-4-(β-D-xylofuranosylamino)-pyrimidine]: 0; for `O=[N+]([O-])c1ccc(N[C@@H]2O[C@H](CO)[C@@H](O)[C@H]2O)nc1` [Compound 5, 5-Nitro-2-(β-D-ribofuranosyl-amino)pyridine]: “*”. The same measure for `Nc1ncnc(N[C@H]2O[C@@H](CO)[C@H](O)[C@@H]2O)c1[N+](=O)[O-]` [Compound 19, 6-amino-5-nitro-4-(β-L-ribofuranosylamino)-pyrimidine]: “**”; for `COc1ccc([N+](=O)[O-])c(N[C@@H]2O[C@H](CO)[C@@H](O)[C@H]2O)n1` [Compound 8, 6-methoxy-3-nitro-2-(β-D-ribofuranosyl-amino)pyridine]: 0; for `Nc1ncnc(NC2O[C@H](CO)[C@@H](O)[C@H]2O)c1[N+](=O)[O-]` (stereo in doubt) [Compound 22, 6-amino-5-nitro-4-(α-D-ribofuranosylamino)-pyrimidine]: “***”.
